Tests used:
DHHC proteins = details: literature: Jennings et al., 2008; cited from earlier work
MDA-MB-231 cells = test: apoptotic cell death, caspase-3 blot after chemotherapeutic agents; format: cell-based, human; details: for cell sensitivity to drug (apoptotic cell death, caspase-3) when zDHHC3 is ablated: MDA-MB-231, 25 hr, D3 shRNA vs control shRNA, Camptothecin 2 μM, Gefitinib 50 μM, 5-Fluorouracil 10 μg/ml
Experimental: Specifically, human breast carcinoma MDA-MB-231 cells were treated with Camptothecin (2 μM), Gefitinib (50 μM), 5-Fluorouracil (10 μg/ml), or DMSO (vehicle control), for 25 hr, lysed, then blotted for caspase-3, to assess apoptotic cell death. C=control shRNA; D3=stable DHHC3 ablation; D3^R=shRNA knockdown cells reconstituted with wild type DHHC3; D3^M=mutant DHHC3 (inactivated by C→S active site mutation).

[1] = system: focal adhesion kinase (FAK); test: FAK tyrosine phosphorylation, immunoprecipitation and western blotting; format: cell-based, human; details: control and ZDHHC3-ablated MDA-MB-231 cells, FIG. 2C upper panels
Text: Increased oxidative stress can decrease tyrosine phosphatase activities (Tanner et al., 2011 Antioxid Redox Signal, 15:77-97), which can elevate tyrosine phosphorylation of focal adhesion kinase (FAK) and STAT3 proteins (Carballo et al., 1999 J Biol Chem, 274:17580-6; Ben et al., 2000 IUBMB Life, 50:291-9).

MCP-1 = MCP-1 secretion (senescence-associated), western blotting; format: cell-based, human; details: MDA-MB-231 cells, FIG. 2C bottom panel
Experimental: Cells were cultured in DMEM and/or RPMI medium (Invitrogen, Grand Island, N.Y.) containing 10% FBS (Sigma, Mo.), HEPES and 1% penicillin-streptomycin (Invitrogen, Grand Island, N.Y.). […] Cultured cells were lysed in 1% Triton X-100, and total protein was quantified using BCA protein estimation kit. Western blotting and relative band intensity densitometry were described previously (Sharma et al., 2012 Cell Mol Life Sci, 69:2233-44).

[2] = system: ZDHHC3-ablated MDA-MB-231 cells; test: oxidative stress/ROS, CellROX dye, flow cytometry; format: cell-based, human; details: for direct and indirect effects of oxidative stress in ZDHHC3-ablated cells: summary statement; for effect on oxidative stress/ROS elevated by ZDHHC3 ablation: ZDHHC3-ablated MDA-MB-231 cells, CellROX
Experimental: To assess oxidative stress/reactive oxygen species (ROS), control and ZDHHC3-ablated tumor cells were trypsinized and suspended in complete medium. After PBS wash, cells were loaded with 2 μM CellROX dye in complete medium (37° C., 30 min). Cells were then washed twice with IX PBS, incubated in complete media (37° C., 30 min), washed twice again with 1×PBS, and then analyzed by flow cytometry. Similarly, senescence was measured by loading suspended control and ZDHHC3 ablated cells with C12FDG dye (30 min, 37° C.) in complete medium. The C12FDG dye is converted by intracellular β-galactosidase (elevated in senescent cells) to produce fluorescence, which was quantitated by flow cytometry. […] Increased oxidative stress can decrease tyrosine phosphatase activities (Tanner et al., 2011 Antioxid Redox Signal, 15:77-97), which can elevate tyrosine phosphorylation of focal adhesion kinase (FAK) and STAT3 proteins (Carballo et al., 1999 J Biol Chem, 274:17580-6; Ben et al., 2000 IUBMB Life, 50:291-9).

ZDHHC3-ablated cells = test: senescence, C12FDG dye (β-galactosidase), flow cytometry; format: cell-based, human; details: summary statement
Experimental: To assess oxidative stress/reactive oxygen species (ROS), control and ZDHHC3-ablated tumor cells were trypsinized and suspended in complete medium. After PBS wash, cells were loaded with 2 μM CellROX dye in complete medium (37° C., 30 min). Cells were then washed twice with IX PBS, incubated in complete media (37° C., 30 min), washed twice again with 1×PBS, and then analyzed by flow cytometry. Similarly, senescence was measured by loading suspended control and ZDHHC3 ablated cells with C12FDG dye (30 min, 37° C.) in complete medium. The C12FDG dye is converted by intracellular β-galactosidase (elevated in senescent cells) to produce fluorescence, which was quantitated by flow cytometry.

| SMILES | cell sensitivity to drug (apoptotic cell death, caspase-3) when zDHHC3 is ablated (MDA-MB-231 cells) | effect on ZDHHC3 ablation-induced FAK tyrosine phosphorylation [1] | MCP-1 upregulation in ZDHHC3-ablated cells (MCP-1) | direct and indirect effects of oxidative stress in ZDHHC3-ablated cells [2] | increased senescence measured by β-galactosidase activity and/or SASP marker MCP-1 (ZDHHC3-ablated cells) | other results |
| --- | --- | --- | --- | --- | --- | --- |
| CCCCCCCCCCCCCCC(Br)C(=O)O (stereo not drawn) [2-bromopalmitate] | – | – | – | – | – | palmitoyltransferase activity of all DHHC proteins tested (DHHC proteins): inhibited |
| O=c1[nH]cc(F)c(=O)[nH]1 [5-Fu, 5-Fluorouracil] | enhanced | – | – | – | – | – |
| CC(C)c1c(C(=O)Nc2ccccc2)c(-c2ccccc2)c(-c2ccc(F)cc2)n1CC[C@@H](O)C[C@@H](O)CC(=O)O [atorvastatin] | – | substantially prevented | markedly diminished | substantially reversed | substantially reversed | – |
| COc1cc2ncnc(Nc3ccc(F)c(Cl)c3)c2cc1OCCCN1CCOCC1 [Gefitinib] | not enhanced | – | – | – | – | – |
| CC(=O)N[C@@H](CS)C(=O)O [NAC, N-acetyl cysteine] | – | substantially prevented | markedly diminished | substantially reversed | substantially reversed | effect on oxidative stress/ROS elevated by ZDHHC3 ablation [2]: substantially prevented; effect on oxidative stress/ROS elevated by ZDHHC3 ablation ([2]; listed as N-acetyl cysteine): partial reversal |
| CC[C@@]1(O)C(=O)OCc2c1cc1n(c2=O)Cc2cc3ccccc3nc2-1 [camptothecin] | enhanced | – | – | – | – | cell sensitivity to drug (caspase-3) with inactive DHHC3 (D3M) compared to fully functional DHHC3 (D3R) (MDA-MB-231 cells; zDHHC3-ablated MDA-MB-231 reconstituted, lane 10 vs lane 9): markedly enhanced |
| O=C(O)CCCCC1CCSS1 (stereo not drawn) [α-LA, α-lipoic acid] | – | substantially prevented | markedly diminished | substantially reversed | substantially reversed | effect on oxidative stress/ROS elevated by ZDHHC3 ablation [2]: substantially prevented |
| O=C1C(=Cc2cc([N+](=O)[O-])ccc2O)Sc2ccccc21 [2-(2-hydroxy-5-nitro-benzylidene)-benzo[b]thiophen-3-one] | – | – | – | – | – | palmitoyltransferase activity of all DHHC proteins tested (DHHC proteins): inhibited |
